# Laboratory results from patent publication US8835466B2, “Synthesis and uses of pyroglutamic acid derivatives” (Prodimed, S.A., priority 2006, dated 2014).
# Where “and” joins values, the source holds several entries; their conditions need not be identical. Equal entries are not always repeated. Where two headings read alike, the source gives them in different places.
# Assays:
# [1] = tested on: CT26.wt (colon carcinoma); experiment: Effect of isomer 4 (9d) on tumour growth, CT26.wt (Example 10); type: in vivo; settings: CT26.wt (high dose colon carcinoma); Balbc/cByl mice; 250 ng/mice i.p. days 6, 7 and 14
# Description: (§1) The following assays were made in order to check the effect of isomer 4 (9d) on different tumours following methods and materials analogous to those used in examples 8 and 9, In all cases sterile physiologic saline (Grifols, Barcelona, Spain) was used as placebo. Isomer 4 (9d) was tested at the dose levels indicated in Table 13 on days 6, 7 and 14 after tumour inoculation. In all cases the vehicle was physiologic saline and the treatments were given by intraperitoneal route. The volume inoculated was 0.2 mL/animal.
# [2] = tested on: CT26.CL25 (colon carcinoma); experiment: Effect of isomer 4 (9d) on tumour growth, CT26.CL25 (Example 10); type: in vivo; settings: CT26.CL25 (Low dose colon carcinoma); Balbc/cByl mice; 250 ng/mice i.p. days 6, 7 and 14
# Description: as §1
# Mm5MT (Breast tumour) = experiment: Effect of isomer 4 (9d) on tumour growth, Mm5MT (Example 10); type: in vivo; settings: C3H/HeN mice, 250 ng/mice i.p. days 6, 7 and 14
# Description: as §1
# ASB XIV (lung carcinoma) = experiment: Effect of isomer 4 (9d) on tumour growth, ASB XIV (Example 10); type: in vivo; settings: Balb/cAnNCrI mice, 260 ng/mice i.p. days 6, 7 and 14
# Description: as §1
# P-815 (Mastocytoma) = experiment: Effect of isomer 4 (9d) on tumour growth, P-815 (Example 10); type: in vivo; settings: DBA/2NCrI mice, 250 ng/mice i.p. days 6, 7 and 14
# Description: as §1
# [3] = tested on: KLN 205 cells (lung cell carcinoma); experiment: Effect of 9d in combination with Cisplatin on tumour growth, KLN 205 (Example 11); type: in vivo, DBA/2 mice; settings: for Tumour surface, overall values (Mean) / Tumour surface, overall values (Median) / Tumour volume, overall values (Mean) / Tumour volume, overall values (Median): 9d 250 ng, Cisplatin 65 μg i.p. days 3, 6, 10, 13, 17, 20
# Description: This was carried out by measuring two perpendicular diameters (d1/d2) with a calliper. These measures were used to obtain both tumour surface and volume: […] Results were expressed as single values and/or as the mean±SD or median from each experimental group. This assay was made in order to check the effect on in vivo tumour growth in mice challenged with KLN 205 cells. Their effect was compared with the combination of Cisplatin plus 9d and/or placebo. KLN 205 is a lung cell carcinoma originated in DBA/2 mouse strain, and therefore syngeneic in mice with DBA/2 genetic background (Kaneko T and […]. Growth characteristics and drug responses of a murine lung carcinoma in vitro and in vivo. Cancer Res. 38: 2084-2090; 1978). KLN 205 cells (CLS, Eppelheim, Germany) were maintained in vitro by serial passages every 3-4 days. […] Louis, Mo., USA) by seeding 5×10^6 cells onto 75 cm^2 culture flasks. Subcultures were carried out by collecting detached cells after treatment with trypsin-EDTA (Sigma, St. Louis, Mo., USA). Tumour cells, collected from 48 hour cultures, were used as source of KLN 205 cells for the studies described below. […] Tumours were established by subcutaneous inoculation in the right hind flank. Mice (DBA/2) were inoculated with 0.2 mL containing 2×10^5 viable KLN 205 cells. The day of subcutaneous inoculation will be considered Day 0 of the test. A case-control study was performed with treated and control mice in order to determine whether differences between placebo, 9d, Cisplatin or 9d+Cisplatin were present. […] The t-test was chosen for being one of the better known parametrical tests.
# healthy mice = type: in vivo; settings: for WEIGHT LOSS: weight, MEAN / WEIGHT LOSS: weight, MEDIAN: n 5
# Description: This assay was made in order to perform a preliminary study to address the toxic effect of Isomer 4 (9d) used at a high dose on healthy mice. Its eventual toxicity will be compared with placebo.
# Isomer 4 (9d) at 0.7 mg/mL in sterile physiological saline.
# The vehicle in which Isomer 4 was diluted was sterile physiological saline for injection (Grifols, Barcelona, Spain) and sterile distilled water for injection (Grifols, Barcelona, Spain)
# The treatments were given i.p. or s.c.
# Every mouse was observed daily during 10 days.
# Three measures were performed:
# 3. Weight. This was measured and expressed in grammes.
# 4. Lethality. This was expressed as percentage of survival.
# 5. Toxicity. This was checked on alive mice for the following parameters and score criteria:
# A case-control study was performed with treated and control mice in order to determine whether differences between Isomer 4 and administration of placebo were present. The U-test of Mann Withney was chosen for being one of the better known non-parametrical tests, anyway, results for this test are equivalent both to those of Wilcoxon's sum of ranges and Kruskal-Wallis two-groups test.
# [4] = day 10 after tumour inoculation
# [5] = day 13 after tumour inoculation
# [6] = day 17 after tumour inoculation
# [7] = day 20 after tumour inoculation
# [8] = day 24 after tumour inoculation
# [9] = day 27 after tumour inoculation
# [10] = day 31 after tumour inoculation
# [11] = day 34 after tumour inoculation
# [12] = day 38 after tumour inoculation
# [13] = Group A1, 1.25 mg i.p., C57BL/6NCrI, day 0 after the beginning of the treatment
# [14] = Group A1, 1.25 mg i.p., C57BL/6NCrI, day 1 after the beginning of the treatment
# [15] = Group A1, 1.25 mg i.p., C57BL/6NCrI, day 2 after the beginning of the treatment
# [16] = Group A1, 1.25 mg i.p., C57BL/6NCrI, day 3 after the beginning of the treatment
# [17] = Group A1, 1.25 mg i.p., C57BL/6NCrI, day 4 after the beginning of the treatment
# [18] = Group A1, 1.25 mg i.p., C57BL/6NCrI, day 5 after the beginning of the treatment
# [19] = Group A1, 1.25 mg i.p., C57BL/6NCrI, day 6 after the beginning of the treatment
# [20] = Group A1, 1.25 mg i.p., C57BL/6NCrI, day 7 after the beginning of the treatment
# [21] = Group A1, 1.25 mg i.p., C57BL/6NCrI, day 8 after the beginning of the treatment
# [22] = Group A1, 1.25 mg i.p., C57BL/6NCrI, day 9 after the beginning of the treatment
# [23] = Group A1, 1.25 mg i.p., C57BL/6NCrI, day 10 after the beginning of the treatment
compound,measurement,setting,value
"Br.N[C@]1(C[n+]2ccccc2)C[C@H](C(=O)O)NC1=O.[Br-] (single isomer, unassigned; isomer 4) [isomer 4, 3S,5R-1-(3-Amino-5-carboxy-2-oxopyrrolidin-3-ylmethyl)pyridinium bromide hidrobromide]",Tumour growth inhibition?,[1],YES
same,Tumour growth inhibition?,[2],YES
same,Tumour growth inhibition?,Mm5MT (Breast tumour),YES
same,Tumour growth inhibition?,ASB XIV (lung carcinoma); ASB XIV (high dose lung carcinoma),YES
same,Tumour growth inhibition?,ASB XIV (lung carcinoma); ASB XIV (low dose lung carcinoma),YES
same,Tumour growth inhibition?,P-815 (Mastocytoma),YES
same,"Tumour surface, overall values (Mean)",[3]; day 0 after tumour inoculation,0 mm^2
same,"Tumour surface, overall values (Median)",[3]; day 0 after tumour inoculation,0 mm^2
same,"Tumour volume, overall values (Mean)",[3]; day 0 after tumour inoculation,0 mm^3
same,"Tumour volume, overall values (Median)",[3]; day 0 after tumour inoculation,0 mm^3
same,"Tumour surface, overall values (Mean)",[3]; [4],5.38 mm^2
same,"Tumour surface, overall values (Median)",[3]; [4],4 mm^2
same,"Tumour volume, overall values (Mean)",[3]; [4],8.81 mm^3
same,"Tumour volume, overall values (Median)",[3]; [4],4 mm^3
same,"Tumour surface, overall values (Mean)",[3]; [5],17.25 mm^2
same,"Tumour surface, overall values (Median)",[3]; [5],16 mm^2
same,"Tumour volume, overall values (Mean)",[3]; [5],43.38 mm^3
same,"Tumour volume, overall values (Median)",[3]; [5],32 mm^3
same,"Tumour surface, overall values (Mean)",[3]; [6],29.88 mm^2
same,"Tumour volume, overall values (Mean)",[3]; [6],94.56 mm^3
same,"Tumour surface, overall values (Mean)",[3]; [7],57.06 mm^2
same,"Tumour surface, overall values (Median)",[3]; [7],36 mm^2
same,"Tumour volume, overall values (Mean)",[3]; [7],246.03 mm^3
same,"Tumour volume, overall values (Median)",[3]; [7],108 mm^3
same,"Tumour surface, overall values (Mean)",[3]; [8],81.38 mm^2
same,"Tumour surface, overall values (Median)",[3]; [8],64 mm^2
same,"Tumour volume, overall values (Mean)",[3]; [8],393.25 mm^3
same,"Tumour volume, overall values (Median)",[3]; [8],256 mm^3
same,"Tumour surface, overall values (Mean)",[3]; [9],113.5 mm^2
same,"Tumour surface, overall values (Median)",[3]; [9],105.5 mm^2
same,"Tumour volume, overall values (Mean)",[3]; [9],611.75 mm^3
same,"Tumour volume, overall values (Median)",[3]; [9],446.75 mm^3
same,"Tumour surface, overall values (Mean)",[3]; [10],135.31 mm^2
same,"Tumour surface, overall values (Median)",[3]; [10],132.5 mm^2
same,"Tumour volume, overall values (Mean)",[3]; [10],777.53 mm^3
same,"Tumour volume, overall values (Median)",[3]; [10],628.75 mm^3
same,"Tumour surface, overall values (Mean)",[3]; [11],168.81 mm^2
same,"Tumour surface, overall values (Median)",[3]; [11],170.5 mm^2
same,"Tumour volume, overall values (Mean)",[3]; [11],1068.3 mm^3
same,"Tumour volume, overall values (Median)",[3]; [11],937.75 mm^3
same,"Tumour surface, overall values (Mean)",[3]; [12],214.44 mm^2
same,"Tumour surface, overall values (Median)",[3]; [12],227.5 mm^2
same,"Tumour volume, overall values (Mean)",[3]; [12],1504.7 mm^3
same,"Tumour volume, overall values (Median)",[3]; [12],1478.8 mm^3
same,"KLN 205 tumour growth vs. placebo, tendency in words","[3]; either in surface or volume, all days scored after day 31th, t-test",significant tendency
same,"Differences in KLN 205 tumour growth rate vs. placebo, in words","[3]; t-test, 250 ng i.p.",not differences
same,"Differences on weight between groups (Isomer 4 vs placebo), p (Mann-Whitney U test)","healthy mice; C57BL/6 mice, every day scored over 10 days",> 0.05
same,WEIGHT LOSS: weight of each mouse,"healthy mice; Group A1, 1.25 mg i.p., C57BL/6NCrI, individual animals 1-5, day 8 after the beginning of the treatment",26 g (3×) and 20 g and 28 g
same,"WEIGHT LOSS: weight, MEAN",healthy mice; [13],26.4 g
same,"WEIGHT LOSS: weight, MEDIAN",healthy mice; [13],27 g
same,"WEIGHT LOSS: weight, MEAN",healthy mice; [14],25.4 g
same,"WEIGHT LOSS: weight, MEDIAN",healthy mice; [14],26 g
same,"WEIGHT LOSS: weight, MEAN",healthy mice; [15],25.4 g
same,"WEIGHT LOSS: weight, MEDIAN",healthy mice; [15],26 g
same,"WEIGHT LOSS: weight, MEAN",healthy mice; [16],26 g
same,"WEIGHT LOSS: weight, MEDIAN",healthy mice; [16],26 g
same,"WEIGHT LOSS: weight, MEAN",healthy mice; [17],25.8 g
same,"WEIGHT LOSS: weight, MEDIAN",healthy mice; [17],26 g
same,"WEIGHT LOSS: weight, MEAN",healthy mice; [18],24.8 g
same,"WEIGHT LOSS: weight, MEDIAN",healthy mice; [18],26 g
same,"WEIGHT LOSS: weight, MEAN",healthy mice; [19],25 g
same,"WEIGHT LOSS: weight, MEDIAN",healthy mice; [19],26 g
same,"WEIGHT LOSS: weight, MEAN",healthy mice; [20],25 g
same,"WEIGHT LOSS: weight, MEDIAN",healthy mice; [20],26 g
same,"WEIGHT LOSS: weight, MEAN",healthy mice; [21],25.2 g
same,"WEIGHT LOSS: weight, MEDIAN",healthy mice; [21],26 g
same,"WEIGHT LOSS: weight, MEAN",healthy mice; [22],25 g
same,"WEIGHT LOSS: weight, MEDIAN",healthy mice; [22],26 g
same,"WEIGHT LOSS: weight, MEAN",healthy mice; [23],24.8 g
same,"WEIGHT LOSS: weight, MEDIAN",healthy mice; [23],26 g
same,"Deaths or toxicity (systemic), in words","healthy mice; Group A1, dose exceeded 50,000-fold the total amount of the therapeutic dose",No deaths or toxicity were observed
same,"Local toxicity, in words","healthy mice; Group C1, dose exceeded 500-fold the normal concentration of the therapeutic dose",Local toxicity was neither observed
same,"Tolerance by mice, in words",healthy mice; doses that greatly exceed its therapeutic range,well tolerated
